Where two headings read alike, the source gives them in different places.
Columns and labels:
OVXF 899L = assay: Monolayer Assay, PI: OVXF 899L (Ovarian Cancer); assay type: cell-based, human
Excerpt: (§1) This example illustrates cell proliferation data in the form of IC50, IC70 and IC90 values obtained by exposure of human cancer cell-lines to compound (Ia). […].

GXF 251L = assay: Monolayer Assay, PI: GXF 251L (Gastric); assay type: cell-based, human
Excerpt: as §1

PRXF PC3M = assay: Monolayer Assay, PI: PRXF PC3M (Prostate); assay type: cell-based, human
Excerpt: as §1

BXF 1218L = assay: Monolayer Assay, PI: BXF 1218L (Bladder); assay type: cell-based, human
Excerpt: as §1

MAXF MCF7 = assay: Monolayer Assay, PI: MAXF MCF7 (Breast); assay type: cell-based, human
Excerpt: as §1

[1] = test system: IFN γ secretion in Con-A activated naive mouse splenocytes; assay: IFN γ secretion in Con-A activated naive mouse splenocytes; assay type: cell-based; settings: FIG. 3B
Excerpt: This example illustrates IFN y secretion data obtained by separately administering different concentrations of compound (Ia), paroxetine, citalopram, and ecitalopram to Con-A activated naive mouse splenocytes. The results are depicted in FIG. 3B.

CXF HT29 = assay: Monolayer Assay, PI: CXF HT29 (Colorectal); assay type: cell-based, human
Excerpt: as §1

[2] = test system: BCL2 expression in human Jurkat lymphoma cells; assay: Western blot of BCL2 expression in human Jurkat lymphoma cell-line; assay type: cell-based; settings: FIG. 10
Excerpt: This example illustrates western blot data corresponding to BCL2 expression in a human Jurkat lymphoma cell-line treated with different concentrations of compound (Ia). The results are depicted in FIG. 10.

PXF 1752L = assay: Monolayer Assay, PI: PXF 1752L (Pleuramesothelioma); assay type: cell-based, human
Excerpt: as §1

RXF 944L = assay: Monolayer Assay, PI: RXF 944L (Renal); assay type: cell-based, human
Excerpt: as §1

[3] = test system: human Jurkat lymphoma cells; assay: Viability of human Jurkat lymphoma cells, alamar blue staining; assay type: cell-based; settings: for IC50: Homo sapiens, 48 hr, alamar blue
Method: This example illustrates cell viability data derived from the incubation of a human. […] The results are depicted in FIGS. 1A, 1B, and 1C. […] See Nociari et al., J. Immunol. […] Each point represents the mean+/−SE of 4 determinations.

PAXF 1657L = assay: Monolayer Assay, PI: PAXF 1657L; assay type: cell-based, human
Excerpt: as §1

MEXF 276L = assay: Monolayer Assay, PI: MEXF 276L (Melanoma); assay type: cell-based, human
Excerpt: as §1

XCL A431 = assay: Monolayer Assay, PI: XCL A431; assay type: cell-based, human
Excerpt: as §1

CN[C@H]1CC[C@@H](c2ccc(Cl)c(Cl)c2)c2ccc(C#CCCCO)cc21 [compound (Ia), (1S-cis)-4-(3,4-dichlorophenyl)-7-(5-hydroxy-1-pentyn-1-yl)-1,2,3,4-tetrahydro-N-methyl-1-naphthalenamine hydroiodide]
Test/Control (%) (OVXF 899L; 2.3 μg/ml): 94% | Test/Control activity class (OVXF 899L; 2.3 μg/ml): − (− (T/C = 50)) | Test/Control (%) (OVXF 899L; 7.5 μg/ml): 10% | Test/Control activity class (OVXF 899L; 7.5 μg/ml): ++ (++ (10 <= T/C < 30)) | Test/Control (%) (OVXF 899L; 23. μg/ml): 3% | Test/Control activity class (OVXF 899L; 23. μg/ml): +++ (+++ (T/C < 10)) | Test/Control (%) (OVXF 899L; 75. μg/ml): 4% | Test/Control activity class (OVXF 899L; 75. μg/ml): +++ (+++ (T/C < 10)) | Test/Control (%) (OVXF 899L; .75 μg/ml): 100% | Test/Control activity class (OVXF 899L; .75 μg/ml): − (− (T/C = 50)) | Test/Control (%) (GXF 251L; 2.3 μg/ml): 80% | Test/Control activity class (GXF 251L; 2.3 μg/ml): − (− (T/C = 50)) | Test/Control (%) (GXF 251L; 7.5 μg/ml): 54% | Test/Control activity class (GXF 251L; 7.5 μg/ml): − (− (T/C = 50)) | Test/Control (%) (GXF 251L; 23. μg/ml): 7% | Test/Control activity class (GXF 251L; 23. μg/ml): +++ (+++ (T/C < 10)) | Test/Control (%) (GXF 251L; 75. μg/ml): 3% | Test/Control activity class (GXF 251L; 75. μg/ml): +++ (+++ (T/C < 10)) | Test/Control (%) (GXF 251L; .75 μg/ml): 90% | Test/Control activity class (GXF 251L; .75 μg/ml): − (− (T/C = 50)) | Test/Control (%) (PRXF PC3M; 2.3 μg/ml): 91% | Test/Control activity class (PRXF PC3M; 2.3 μg/ml): − (− (T/C = 50)) | Test/Control (%) (PRXF PC3M; 7.5 μg/ml): 4% | Test/Control activity class (PRXF PC3M; 7.5 μg/ml): +++ (+++ (T/C < 10)) | Test/Control (%) (PRXF PC3M; 23. μg/ml): 1% | Test/Control activity class (PRXF PC3M; 23. μg/ml): +++ (+++ (T/C < 10)) | Test/Control (%) (PRXF PC3M; 75. μg/ml): 1% | Test/Control activity class (PRXF PC3M; 75. μg/ml): +++ (+++ (T/C < 10)) | Test/Control (%) (PRXF PC3M; .75 μg/ml): 95% | Test/Control activity class (PRXF PC3M; .75 μg/ml): − (− (T/C = 50)) | Test/Control (%) (BXF 1218L; 2.3 μg/ml): 97% | Test/Control activity class (BXF 1218L; 2.3 μg/ml): − (− (T/C = 50)) | Test/Control (%) (BXF 1218L; 7.5 μg/ml): 92% | Test/Control activity class (BXF 1218L; 7.5 μg/ml): − (− (T/C = 50)) | Test/Control (%) (BXF 1218L; 23. μg/ml): 4% | Test/Control activity class (BXF 1218L; 23. μg/ml): +++ (+++ (T/C < 10)) | Test/Control (%) (BXF 1218L; 75. μg/ml): 5% | Test/Control activity class (BXF 1218L; 75. μg/ml): +++ (+++ (T/C < 10)) | Test/Control (%) (BXF 1218L; .75 μg/ml): 101% | Test/Control activity class (BXF 1218L; .75 μg/ml): − (− (T/C = 50)) | Test/Control (%) (MAXF MCF7; 2.3 μg/ml): 67% | Test/Control activity class (MAXF MCF7; 2.3 μg/ml): − (− (T/C = 50)) | Test/Control (%) (MAXF MCF7; 7.5 μg/ml): 5% | Test/Control activity class (MAXF MCF7; 7.5 μg/ml): +++ (+++ (T/C < 10)) | Test/Control (%) (MAXF MCF7; 23. μg/ml): 2% | Test/Control activity class (MAXF MCF7; 23. μg/ml): +++ (+++ (T/C < 10)) | Test/Control (%) (MAXF MCF7; 75. μg/ml): 3% | Test/Control activity class (MAXF MCF7; 75. μg/ml): +++ (+++ (T/C < 10)) | Test/Control (%) (MAXF MCF7; .75 μg/ml): 93% | Test/Control activity class (MAXF MCF7; .75 μg/ml): − (− (T/C = 50)) | IFN γ secretion inhibitory activity [1]: greater IFN γ secretion inhibitory activity than paroxetine, citalopram, and ecitalopram | Test/Control (%) (CXF HT29; 2.3 μg/ml): 100% | Test/Control activity class (CXF HT29; 2.3 μg/ml): − (− (T/C = 50)) | Test/Control (%) (CXF HT29; 7.5 μg/ml): 3% | Test/Control activity class (CXF HT29; 7.5 μg/ml): +++ (+++ (T/C < 10)) | Test/Control (%) (CXF HT29; 23. μg/ml): 1% | Test/Control activity class (CXF HT29; 23. μg/ml): +++ (+++ (T/C < 10)) | Test/Control (%) (CXF HT29; 75. μg/ml): 1% | Test/Control activity class (CXF HT29; 75. μg/ml): +++ (+++ (T/C < 10)) | Test/Control (%) (CXF HT29; .75 μg/ml): 99% | Test/Control activity class (CXF HT29; .75 μg/ml): − (− (T/C = 50)) | BCL2 expression [2]: rapid dose dependent decrease in the levels of the protooncogene Bcl2 | Test/Control (%) (PXF 1752L; 2.3 μg/ml): 81% | Test/Control activity class (PXF 1752L; 2.3 μg/ml): − (− (T/C = 50)) | Test/Control (%) (PXF 1752L; 7.5 μg/ml): 27% | Test/Control activity class (PXF 1752L; 7.5 μg/ml): ++ (++ (10 <= T/C < 30)) | Test/Control (%) (PXF 1752L; 23. μg/ml): 5% | Test/Control activity class (PXF 1752L; 23. μg/ml): +++ (+++ (T/C < 10)) | Test/Control (%) (PXF 1752L; 75. μg/ml): 3% | Test/Control activity class (PXF 1752L; 75. μg/ml): +++ (+++ (T/C < 10)) | Test/Control (%) (PXF 1752L; .75 μg/ml): 99% | Test/Control activity class (PXF 1752L; .75 μg/ml): − (− (T/C = 50)) | Test/Control (%) (RXF 944L; 2.3 μg/ml): 103% | Test/Control activity class (RXF 944L; 2.3 μg/ml): − (− (T/C = 50)) | Test/Control (%) (RXF 944L; 7.5 μg/ml): 9% | Test/Control activity class (RXF 944L; 7.5 μg/ml): +++ (+++ (T/C < 10)) | Test/Control (%) (RXF 944L; 23. μg/ml): 3% | Test/Control activity class (RXF 944L; 23. μg/ml): +++ (+++ (T/C < 10)) | Test/Control (%) (RXF 944L; 75. μg/ml): 3% | Test/Control activity class (RXF 944L; 75. μg/ml): +++ (+++ (T/C < 10)) | Test/Control (%) (RXF 944L; .75 μg/ml): 94% | Test/Control activity class (RXF 944L; .75 μg/ml): − (− (T/C = 50)) | IC50 ([3]; FIG. 1A, read-out: IC50, anti-proliferative activity): 12.5 µM | IC50 ([3]; FIG. 1B, read-out: IC50, decrease in cell viability): 16.2 µM | potency compared with sertraline ([3]; lower concentrations (1-10 μM), FIG. 1B): higher potency than sertraline | Test/Control (%) (PAXF 1657L; 2.3 μg/ml): 92% | Test/Control activity class (PAXF 1657L; 2.3 μg/ml): − (− (T/C = 50)) | Test/Control (%) (PAXF 1657L; 7.5 μg/ml): 40% | Test/Control activity class (PAXF 1657L; 7.5 μg/ml): + (+ (30 <= T/C < 50)) | Test/Control (%) (PAXF 1657L; 23. μg/ml): 6% | Test/Control activity class (PAXF 1657L; 23. μg/ml): +++ (+++ (T/C < 10)) | Test/Control (%) (PAXF 1657L; 75. μg/ml): 5% | Test/Control activity class (PAXF 1657L; 75. μg/ml): +++ (+++ (T/C < 10)) | Test/Control (%) (PAXF 1657L; .75 μg/ml): 96% | Test/Control activity class (PAXF 1657L; .75 μg/ml): − (− (T/C = 50)) | Test/Control (%) (MEXF 276L; 2.3 μg/ml): 88% | Test/Control activity class (MEXF 276L; 2.3 μg/ml): − (− (T/C = 50)) | Test/Control (%) (MEXF 276L; 7.5 μg/ml): 30% | Test/Control activity class (MEXF 276L; 7.5 μg/ml): + (+ (30 <= T/C < 50)) | Test/Control (%) (MEXF 276L; 23. μg/ml): 4% | Test/Control activity class (MEXF 276L; 23. μg/ml): +++ (+++ (T/C < 10)) | Test/Control (%) (MEXF 276L; 75. μg/ml): 5% | Test/Control activity class (MEXF 276L; 75. μg/ml): +++ (+++ (T/C < 10)) | Test/Control (%) (MEXF 276L; .75 μg/ml): 95% | Test/Control activity class (MEXF 276L; .75 μg/ml): − (− (T/C = 50)) | Test/Control (%) (XCL A431; 2.3 μg/ml): 94% | Test/Control activity class (XCL A431; 2.3 μg/ml): − (− (T/C = 50)) | Test/Control (%) (XCL A431; 7.5 μg/ml): 6% | Test/Control activity class (XCL A431; 7.5 μg/ml): +++ (+++ (T/C < 10)) | Test/Control (%) (XCL A431; 23. μg/ml): 3% | Test/Control activity class (XCL A431; 23. μg/ml): +++ (+++ (T/C < 10)) | Test/Control (%) (XCL A431; 75. μg/ml): 2% | Test/Control activity class (XCL A431; 75. μg/ml): +++ (+++ (T/C < 10)) | Test/Control (%) (XCL A431; .75 μg/ml): 100% | Test/Control activity class (XCL A431; .75 μg/ml): − (− (T/C = 50))

From patent US20100279990A1, “ANTIPROLIFERATIVE COMPOUNDS, COMPOSITIONS AND METHODS OF USE” (RAMOT AT TEL-AVIV UNIVERSITY LTD., priority 2006, published 2010)
